Source: the Deep4Chem optical property database

Assay: solvent given as SMILES

O=S1(=O)c2ccccc2C2(c3cc(-c4ccc(N(c5ccccc5)c5ccccc5)cc4)ccc3-c3ccc(-c4ccc(N(c5ccccc5)c5ccccc5)cc4)cc32)c2ccccc21
absorption maximum (in ClCCl): 380 nm

O=C([O-])c1ccc(C(=O)[O-])c2cc3ccccc3cc12
absorption maximum (in CN(C)C=O): 396 nm

Fc1ccc(-c2nc3n(c2-c2ccncc2)CCS3)cc1
absorption maximum (in C1CCCCC1): 328 nm | absorption maximum (in C1CCOC1): 328.5 nm | absorption maximum (in C1COCCO1): 328.5 nm | absorption maximum (in CC#N): 319 nm | absorption maximum (in CC(C)(C)O): 329.5 nm | absorption maximum (in CC(C)O): 328 nm | absorption maximum (in CCO): 325 nm | absorption maximum (in CCOC(C)=O): 319 nm | absorption maximum (in CN(C)C=O): 326.5 nm | absorption maximum (in CNC=O): 325.5 nm | absorption maximum (in CO): 322.5 nm | absorption maximum (in CS(C)=O): 329 nm | absorption maximum (in Cc1ccc(C)cc1): 332 nm | absorption maximum (in Cc1ccccc1): 333.5 nm | absorption maximum (in ClC(Cl)Cl): 329 nm | absorption maximum (in ClCCl): 326 nm | absorption maximum (in O): 322 nm | absorption maximum (in OCCO): 330 nm

N#Cc1c(-n2c3ccc(Cl)cc3c3cc(Cl)ccc32)c(C#N)c(-n2c3ccc(Cl)cc3c3cc(Cl)ccc32)c(-n2c3ccc(Cl)cc3c3cc(Cl)ccc32)c1-n1c2ccc(Cl)cc2c2cc(Cl)ccc21
absorption maximum (in Cc1ccccc1): 384 nm

CCOC(=O)/C(C)=C/C1=C(c2ccc(C)cc2)C2=Nc3c(-c4ccc(C)cc4)c(Br)c(-c4ccc(C)cc4)n3[B-](F)(F)[N+]2=C1c1ccc(C)cc1
absorption maximum (in ClC(Cl)Cl): 661 nm

CC1(C)c2ccccc2N(c2ccc(-c3nc(-c4ccccn4)n(-c4ccccc4)n3)cc2)c2ccccc21
absorption maximum (in ClCCl): 342 nm

Cc1ccc(C2=C3C=CC(Cl)=[N+]3[B-](F)(F)n3c(Cl)ccc32)cc1
absorption maximum (in C1CCCCC1): 514 nm | absorption maximum (in C1CCOC1): 511 nm | absorption maximum (in CC#N): 508 nm | absorption maximum (in CCOC(C)=O): 509 nm | absorption maximum (in CO): 508 nm | absorption maximum (in Cc1ccccc1): 516 nm | absorption maximum (in ClC(Cl)Cl): 515 nm

CC(=O)[B-]1(C(C)=O)OC(c2ccc3ccccc3c2)=CC(c2ccc3ccccc3c2)=[O+]1
absorption maximum (in CC#N): 420 nm | absorption maximum (in ClC(Cl)(Cl)Cl): 415 nm

Cc1ccc(N(c2ccc(C)cc2)c2ccc(Oc3nnc(Cl)nn3)cc2)cc1
absorption maximum (in ClCCl): 523 nm

C(=C\c1nc(/C=C/c2ccc(N(c3ccccc3)c3ccccc3)cc2)cc(/C=C/c2ccc(N(c3ccccc3)c3ccccc3)cc2)n1)/c1ccccc1
absorption maximum (in ClCCl): 430 nm

c1ccc(-c2cc(-c3ccccc3)cc(-c3ccc4c(c3)C3(c5ccccc5-4)c4ccccc4-c4c3c3c5ccccc5c(-c5cc(-c6ccccc6)cc(-c6ccccc6)c5)cc3c3ccccc43)c2)cc1 (configuration not stated)
absorption maximum (in C1CCOC1): 387 nm

CC(C)(C)c1ccc(-c2ccc(-c3c4c(nc5ccccc35)-c3cc5c(cc3CC4)-c3nc4ccccc4c(-c4ccc(-c6ccc(C(C)(C)C)cc6)cc4)c3CC5)cc2)cc1
absorption maximum (in ClC(Cl)Cl): 376 nm

Nc1ncc2nc[nH]c2n1
absorption maximum (in O): 290 nm

CCCC1(CCC)c2cc(-c3ccccc3)ccc2-c2ccc(-c3ccc4c(c3)C(CCC)(CCC)c3cc(-c5ccccc5)ccc3-4)cc21
absorption maximum (in C1CCCCC1): 346 nm

CN(C)c1ccc(C2=Nc3scc(-c4ccccc4)[n+]3[B-](F)(F)O2)cc1
absorption maximum (in C1CCOC1): 406 nm | absorption maximum (in CC#N): 406 nm | absorption maximum (in Cc1ccccc1): 409 nm | absorption maximum (in ClCCl): 411 nm

CCCCCCN1C(=O)c2cccc3c(-c4scc5c4OCCO5)ccc(c23)C1=O
absorption maximum (in ClC(Cl)Cl): 390 nm

COc1ccc(N(c2ccc(OC)cc2)c2cc(N(c3ccc(OC)cc3)c3ccc(OC)cc3)c3ccc4cc(C(C)(C)C)cc5ccc2c3c54)cc1
absorption maximum (in ClCCl): 434 nm

N#CC(C#N)=Cc1ccc(-c2ccc(O)c(-c3nc4ccccc4s3)c2)s1
absorption maximum (in ClCCl): 427 nm | absorption maximum (in O): 416 nm

COc1ccc(C2=CC(c3ccccc3)=[N+]3C2=Nc2c(-c4ccc(OC)cc4)cc(-c4ccccc4)n2[B-]3(F)F)cc1
absorption maximum (in Cc1ccccc1): 663 nm | absorption maximum (in ClC(Cl)Cl): 664 nm

CCCCCCCCn1c(=O)c2cc3cc4cc5c(=O)n(CCCCCCCC)c(=O)c5cc4cc3cc2c1=O
absorption maximum (in ClC(Cl)Cl): 421 nm

COc1ccc(-n2nc(C#N)c(N3CCCCCC3)n2)cc1
absorption maximum (in CC#N): 344 nm

CC1(C)C(/C=C/c2cc3ccc(O)cc3oc2=O)=[N+](CCCS(=O)(=O)[O-])c2ccc(S(=O)(=O)O)cc21
absorption maximum (in CCO): 630 nm | absorption maximum (in CS(C)=O): 485 nm | absorption maximum (in O): 573 nm

O=C([O-])COc1cc(NC(=O)c2ccc(-c3c4cc(Cl)c(=O)cc-4oc4cc(O)c(Cl)cc34)c(C(=O)[O-])c2)ccc1N(CC(=O)[O-])CC(=O)[O-]
absorption maximum (in O): 506 nm

O=C(O)CCCCCn1/c(=C/C=C/C2=[N+](CCCCCC(=O)O)c3cccc4cccc2c34)c2cccc3cccc1c32
absorption maximum (in CO): 760 nm

Fc1cc(-c2ccc(-c3nc4cc(Br)ccc4[nH]3)cc2)ccc1-c1ccc(-c2nc3cc(Br)ccc3[nH]2)cc1
absorption maximum (in CN(C)C=O): 342 nm

O=c1oc2ccc(Br)cc2cc1-c1cc2cc(Br)ccc2o1
absorption maximum (in CC#N): 370 nm | absorption maximum (in CCOC(C)=O): 371 nm | absorption maximum (in CS(C)=O): 374 nm | absorption maximum (in Cc1ccccc1): 377 nm | absorption maximum (in O): 331 nm

CCCCN1C(=O)C2=C(c3ccc(-c4ccc5c(c4)C(C)(C)c4ccccc4-5)cc3)[N-]C(=O)C2=C1c1ccc(-c2ccc3c(c2)C(C)(C)c2ccccc2-3)cc1
absorption maximum (in ClCCl): 594 nm
